Peptide text beside a SMILES is read from it.
What was measured:
Type in all cases: cell-based
[1] = system: Pseudomonas syringae pv. syringae EPS94; settings: 48 h
Procedure: (§1) The antibacterial activity of the designed cyclic peptides was assayed against P. syringae pv. syringae, X. axonopodis pv. vesicatoria, and E. amylovora at 3.1, 6.2, 12.5, 25, and 50 μM. Peptides BPC194 and BPC198 were also included in these assays for comparison purposes.
(§2) The following plant pathogenic bacterial strains were used: Erwinia amylovora PMV6076 (Institut National de la Recherche Agronomique, Angers, France); Pseudomonas syringae pv. syringae EPS94 (Institut de Tecnologia Agroalimentària, Universitat de Girona, Spain); and Xanthomonas axonopodis pv. vesicatoria 2133-2 (Instituto Valenciano de Investigaciones Agrarias, Valencia, Spain). All bacteria were stored in Luria Bertani (LB) broth supplemented with glycerol (20%) and maintained at –80 °C. E. amylovora and P. syringae pv. syringae were scrapped from LB agar after growing for 24 h and X. axonopodis pv. vesicatoria after growing for 48 h at 25 °C. The cell material was suspended in sterile water to obtain a suspension of 10^8 CFU mL^−1.
(§3) Lyophilized peptides were solubilized in sterile Milli-Q water to a final concentration of 1000 μM and sterilized through a 0.22-μm pore filter. For MIC assessment, dilutions of the synthetic peptides were made to obtain a final concentration of 500, 250, 125, 62.5, 31.2, and 15.6 μM. Twenty microlitres of each dilution were mixed in a microtiter plate well with 20 μL of the corresponding suspension of the bacterial indicator and 160 μL of Trypticase Soy Broth (TSB) (BioMèrieux, Craponne, France) to a total volume of 200 μL. Three replicates for each strain, peptide, and concentration were used. Positive controls contained water instead of peptide and negative controls contained peptides without bacterial suspension. Bacterial growth was automatically determined by an optical density measurement at 600 nm (Bioscreen C, Labsystem, Helsinki, Finland). Microplates were incubated at 25 °C with 20 s shaking before hourly absorbance measurements for 48 h. Each experiment was repeated twice. The MIC was taken as the lowest peptide concentration with no growth at the end of the experiment. The inhibition of growth (I) was calculated as a percentage of the positive control using the equation: I = 100 × [(AC − AS)/AC], where AC is the area under the curve of the control, and AS is the area under the curve of a given peptide concentration.

[2] = system: Xanthomonas axonopodis pv. vesicatoria 2133-2; settings: Trypticase Soy Broth, 25 °C, 48 h, OD 600 nm (Bioscreen C), peptides at 3.1, 6.2, 12.5, 25, 50 μM, three replicates, experiment repeated twice, MIC = lowest concentration with no growth
Procedure: as §1, §2, §3

[3] = system: Erwinia amylovora PMV6076; experiment: Antibacterial activity (MIC), growth inhibition in microtiter plates; settings: Trypticase Soy Broth, 25 °C, 48 h, OD 600 nm (Bioscreen C), peptides at 3.1, 6.2, 12.5, 25, 50 μM, three replicates, experiment repeated twice, MIC = lowest concentration with no growth
Procedure: as §1, §2, §3

## CC(C)C[C@@H]1NC(=O)[C@H](CCCCN)NC(=O)[C@H](CCCCN)NC(=O)[C@H](CCCCN)NC(=O)[C@H](Cc2ccccc2)NC(=O)[C@H](CCCCN)NC(=O)[C@H](CCC(N)=O)NC(=O)[C@H](CCCCN)NC(=O)[C@H](CCCCN)NC(=O)[C@H](CC(C)C)NC1=O [BPC920] (cyclo(FKKKLLKKQK))
[1]
  MIC Intervals, Pss: 12.5 to 25 µM
[2]
  MIC Intervals, Xav: 25 to 50 µM
[3]
  MIC Intervals, Ea: >50 µM

## CC(C)C[C@@H]1NC(=O)[C@H](CCCCN)NC(=O)[C@H](CCCCN)NC(=O)[C@H](Cc2ccccc2)NC(=O)[C@H](CCCCN)NC(=O)[C@H](CCCCN)NC(=O)[C@H](CCCCN)NC(=O)[C@H](CC(C)C)NC(=O)[C@H](CCCCN)NC(=O)[C@H](CCC(N)=O)NC1=O [BPC198, c(KLKKKFKKLQ)] (cyclo(FKKLQKLKKK))
[1]
  MIC Intervals, Pss: 3.1 to 6.2 µM
[2]
  MIC Intervals, Xav: 3.1 to 6.2 µM
[3]
  MIC Intervals, Ea: 12.5 to 25 µM

## CC(C)C[C@@H]1NC(=O)[C@H](CCCCN)NC(=O)[C@H](CCC(N)=O)NC(=O)[C@H](CCCCN)NC(=O)[C@H](CCCCN)NC(=O)[C@H](CC(C)C)NC(=O)[C@H](Cc2ccccc2)NC(=O)[C@H](CCCCN)NC(=O)[C@H](CCCCN)NC(=O)[C@H](CCCCN)NC1=O [BPC914] (cyclo(FLKKQKLKKK))
[1]
  MIC Intervals, Pss: 12.5 to 25 µM
[2]
  MIC Intervals, Xav: 12.5 to 25 µM
[3]
  MIC Intervals, Ea: >50 µM

## CC(C)C[C@@H]1NC(=O)[C@H](CCCCN)NC(=O)[C@H](CCC(N)=O)NC(=O)[C@H](CC(C)C)NC(=O)[C@H](CCCCN)NC(=O)[C@H](Cc2ccccc2)NC(=O)[C@H](CCCCN)NC(=O)[C@H](CCCCN)NC(=O)[C@H](CCCCN)NC(=O)[C@H](CCCCN)NC1=O [BPC482] (cyclo(FKLQKLKKKK))
[2]
  MIC Intervals, Xav: 6.2 to 12.5 µM
[3]
  MIC Intervals, Ea: >50 µM

## CC(C)C[C@@H]1NC(=O)[C@H](CCC(N)=O)NC(=O)[C@H](Cc2ccccc2)NC(=O)[C@H](CC(C)C)NC(=O)[C@H](CCCCN)NC(=O)[C@H](CCCCN)NC(=O)[C@H](CCCCN)NC(=O)[C@H](CCCCN)NC(=O)[C@H](CCCCN)NC(=O)[C@H](CCCCN)NC1=O [BPC486] (cyclo(FQLKKKKKKL))
[1]
  MIC Intervals, Pss: 12.5 to 25 µM
[3]
  MIC Intervals, Ea: >50 µM

## CC(C)C[C@@H]1NC(=O)[C@H](CCCCN)NC(=O)[C@H](CCCCN)NC(=O)[C@H](CCCCN)NC(=O)[C@H](Cc2ccccc2)NC(=O)[C@H](CCCCN)NC(=O)[C@H](CCC(N)=O)NC(=O)[C@H](CC(C)C)NC(=O)[C@H](CCCCN)NC(=O)[C@H](CCCCN)NC1=O [BPC918] (cyclo(FKKKLKKLQK))
[2]
  MIC Intervals, Xav: 1.6 to 3.1 µM
[3]
  MIC Intervals, Ea: 12.5 to 25 µM

## CC(C)C[C@@H]1NC(=O)[C@H](CCC(N)=O)NC(=O)[C@H](CCCCN)NC(=O)[C@H](CCCCN)NC(=O)[C@H](CC(C)C)NC(=O)[C@H](Cc2ccccc2)NC(=O)[C@H](CCCCN)NC(=O)[C@H](CCCCN)NC(=O)[C@H](CCCCN)NC(=O)[C@H](CCCCN)NC1=O [BPC494] (cyclo(FLKKQLKKKK))
[1]
  MIC Intervals, Pss: 6.2 to 12.5 µM
[2]
  MIC Intervals, Xav: 6.2 to 12.5 µM
[3]
  MIC Intervals, Ea: >50 µM

## CC(C)C[C@@H]1NC(=O)[C@H](CCCCN)NC(=O)[C@H](CCC(N)=O)NC(=O)[C@H](Cc2ccccc2)NC(=O)[C@H](CCCCN)NC(=O)[C@H](CC(C)C)NC(=O)[C@H](CCCCN)NC(=O)[C@H](CCCCN)NC(=O)[C@H](CCCCN)NC(=O)[C@H](CCCCN)NC1=O [BPC488] (cyclo(FQKLKKKKLK))
[2]
  MIC Intervals, Xav: 6.2 to 12.5 µM
[3]
  MIC Intervals, Ea: >50 µM

## CC(C)C[C@@H]1NC(=O)[C@H](CCC(N)=O)NC(=O)[C@H](CC(C)C)NC(=O)[C@H](Cc2ccccc2)NC(=O)[C@H](CCCCN)NC(=O)[C@H](CCCCN)NC(=O)[C@H](CCCCN)NC(=O)[C@H](CCCCN)NC(=O)[C@H](CCCCN)NC(=O)[C@H](CCCCN)NC1=O [BPC484] (cyclo(FLQLKKKKKK))
[1]
  MIC Intervals, Pss: 12.5 to 25 µM
[2]
  MIC Intervals, Xav: 25 to 50 µM
[3]
  MIC Intervals, Ea: >50 µM

## CC(C)C[C@@H]1NC(=O)[C@H](CCCCN)NC(=O)[C@H](CCCCN)NC(=O)[C@H](CCC(N)=O)NC(=O)[C@H](Cc2ccccc2)NC(=O)[C@H](CCCCN)NC(=O)[C@H](CCCCN)NC(=O)[C@H](CC(C)C)NC(=O)[C@H](CCCCN)NC(=O)[C@H](CCCCN)NC1=O [BPC490] (cyclo(FQKKLKKLKK))
[2]
  MIC Intervals, Xav: 3.1 to 6.2 µM
[3]
  MIC Intervals, Ea: 12.5 to 25 µM

## CC(C)C[C@@H]1NC(=O)[C@H](CCC(N)=O)NC(=O)[C@H](CC(C)C)NC(=O)[C@H](CCCCN)NC(=O)[C@H](CCCCN)NC(=O)[C@H](CCCCN)NC(=O)[C@H](CCCCN)NC(=O)[C@H](Cc2ccccc2)NC(=O)[C@H](CCCCN)NC(=O)[C@H](CCCCN)NC1=O [BPC496] (cyclo(FKKKKLQLKK))
[1]
  MIC Intervals, Pss: 6.2 to 12.5 µM
[2]
  MIC Intervals, Xav: 6.2 to 12.5 µM
[3]
  MIC Intervals, Ea: >50 µM

## CC(C)C[C@@H]1NC(=O)[C@H](CCCCN)NC(=O)[C@H](CCCCN)NC(=O)[C@H](CCC(N)=O)NC(=O)[C@H](CC(C)C)NC(=O)[C@H](CCCCN)NC(=O)[C@H](CCCCN)NC(=O)[C@H](Cc2ccccc2)NC(=O)[C@H](CCCCN)NC(=O)[C@H](CCCCN)NC1=O [BPC194, c(KKLKKFKKLQ)] (cyclo(FKKLQKKLKK))
[1]
  MIC Intervals, Pss: 3.1 to 6.2 µM
[2]
  MIC Intervals, Xav: 3.1 to 6.2 µM
[3]
  MIC Intervals, Ea: 6.2 to 12.5 µM

## CC(C)C[C@@H]1NC(=O)[C@H](CCCCN)NC(=O)[C@H](CCCCN)NC(=O)[C@H](CCCCN)NC(=O)[C@H](CCC(N)=O)NC(=O)[C@H](Cc2ccccc2)NC(=O)[C@H](CCCCN)NC(=O)[C@H](CCCCN)NC(=O)[C@H](CCCCN)NC(=O)[C@H](CC(C)C)NC1=O [BPC492] (cyclo(FQKKKLLKKK))
[1]
  MIC Intervals, Pss: 12.5 to 25 µM
[2]
  MIC Intervals, Xav: 12.5 to 25 µM
[3]
  MIC Intervals, Ea: >50 µM

## CC(C)C[C@@H]1NC(=O)[C@H](CCCCN)NC(=O)[C@H](CCCCN)NC(=O)[C@H](CCCCN)NC(=O)[C@H](Cc2ccccc2)NC(=O)[C@H](CC(C)C)NC(=O)[C@H](CCCCN)NC(=O)[C@H](CCCCN)NC(=O)[C@H](CCCCN)NC(=O)[C@H](CCC(N)=O)NC1=O [BPC480] (cyclo(FKKKLQKKKL))
[1]
  MIC Intervals, Pss: 12.5 to 25 µM
[2]
  MIC Intervals, Xav: 12.5 to 25 µM
[3]
  MIC Intervals, Ea: >50 µM

## CC(C)C[C@@H]1NC(=O)[C@H](CCCCN)NC(=O)[C@H](CCCCN)NC(=O)[C@H](CCCCN)NC(=O)[C@H](CC(C)C)NC(=O)[C@H](CCCCN)NC(=O)[C@H](CCC(N)=O)NC(=O)[C@H](Cc2ccccc2)NC(=O)[C@H](CCCCN)NC(=O)[C@H](CCCCN)NC1=O [BPC924] (cyclo(FQKLKKKLKK))
[2]
  MIC Intervals, Xav: 1.6 to 3.1 µM
[3]
  MIC Intervals, Ea: 12.5 to 25 µM

## CC(C)C[C@@H]1NC(=O)[C@H](CCCCN)NC(=O)[C@H](CCCCN)NC(=O)[C@H](CCCCN)NC(=O)[C@H](CCCCN)NC(=O)[C@H](Cc2ccccc2)NC(=O)[C@H](CCCCN)NC(=O)[C@H](CC(C)C)NC(=O)[C@H](CCCCN)NC(=O)[C@H](CCC(N)=O)NC1=O [BPC916] (cyclo(FKKKKLQKLK))
[1]
  MIC Intervals, Pss: 6.2 to 12.5 µM
[2]
  MIC Intervals, Xav: 12.5 to 25 µM
[3]
  MIC Intervals, Ea: >50 µM

## CC(C)C[C@@H]1NC(=O)[C@H](CCCCN)NC(=O)[C@H](CCCCN)NC(=O)[C@H](CCCCN)NC(=O)[C@H](CCCCN)NC(=O)[C@H](CC(C)C)NC(=O)[C@H](CCCCN)NC(=O)[C@H](Cc2ccccc2)NC(=O)[C@H](CCCCN)NC(=O)[C@H](CCC(N)=O)NC1=O [BPC922] (cyclo(FKLKKKKLQK))
[1]
  MIC Intervals, Pss: 12.5 to 25 µM
[2]
  MIC Intervals, Xav: 12.5 to 25 µM
[3]
  MIC Intervals, Ea: >50 µM

Source: paper PMC6152393, “Rational Design of Cyclic Antimicrobial Peptides Based on BPC194 and BPC198” (Molecules : A Journal of Synthetic Chemistry and Natural …, 2017)
